# Assay results reported in article PMC12580772, “A First-in-Human Study of ATM Inhibitor Lartesertib as Monotherapy in Patients with Advanced Solid Tumors” (Clinical Cancer Research, 2025).
# System: patients with advanced solid tumors
# Assay: Phase I dose escalation: safety, tolerability, DLTs and MTD
# Assay type: in vivo
# Experimental: DDRiver Solid Tumors 410 was an open-label, first-in-human, multicenter, phase I study of lartesertib monotherapy, continuously administered once daily, conducted at three study sites in the United States and Canada. Part 1A was a lartesertib monotherapy dose-escalation study designed to evaluate the safety, tolerability, pharmacokinetics (PK), pharmacodynamics (PD), and early signs of efficacy in patients with advanced solid tumors. Patients were treated with lartesertib at increasing dose levels (DLs) ranging from 100 to 400 mg once daily. Each DL included a dose-limiting toxicity (DLT) observation period of 21 days; treatment was continued until disease progression, death, consent withdrawal, unacceptable toxicity, or the end of the study. Additional details are provided under Study Design in the Supplementary Material S1.
# The primary endpoints were the occurrence of DLTs, adverse events (AE), and treatment-related and treatment-emergent AEs (TEAE), along with the occurrence of clinically significant changes in vital signs, laboratory parameters, and 12-lead electrocardiogram findings. The secondary endpoints included PK parameters of lartesertib in plasma after single and multiple doses; establishment of the recommended dose for expansion based on safety, PK, and PD data; absolute and relative changes overtime from baseline in ATM pathway readouts assessed by flow cytometry and immunohistochemistry; and objective response, duration of response, and progression-free survival (PFS) according to the RECIST version 1.1, as assessed by the investigator. Exploratory endpoints included the correlation of baseline and on-treatment biomarkers with response to lartesertib treatment as well as relative changes in total blood cell count, immune cells, and circulatory factors during exposure to lartesertib.
# The DLT analysis set included all patients who received ≥80% of the planned cumulative dose during the DLT period (Period 1) and had completed the DLT period, or patients who experienced ≥1 DLT during the DLT period, regardless of the number of lartesertib doses administered. Additional details on all analysis sets are provided in the Supplementary Material S1. Analyses to determine dose escalation were performed on the DLT analysis set and were based on available safety and PK data. A Bayesian two-parameter logistic regression model (BLRM) was applied to assist the safety monitoring committee in dose recommendations during lartesertib dose escalation. For the determination of the MTD, posterior probabilities (2.5%, 25%, 50%, 75%, and 97.5% quantiles) for DLT rates at selected doses were estimated by a BLRM. The target toxicity of the model for MTD was set at 30%.
# AEs and diseases were coded according to the Medical Dictionary for Regulatory Activities (RRID: SCR_003751) version 25.1 (until 30 days after the last study treatment). The severity of AEs was graded using the NCI Common Terminology Criteria for Adverse Events (RRID: SCR_010296) version 5.0.
# Part 1A was a lartesertib monotherapy dose-escalation designed to determine the safety, tolerability, pharmacokinetics (PK), pharmacodynamics (PD), and early signs of efficacy in participants with solid tumors. For each patient, the study included a Screening period lasting up to 28 days and the estimated total duration in the study was an approximate of 105 days/15 weeks. Patients were treated with lartesertib orally as a tablet, at doses ranging from 100 to 400 mg once daily (QD) under a fasting condition of 2 hours pre-dose to 1-hour post-dose in general, and 2 hours pre-dose to 4 hours post-dose on days where PK-time matched triplicate ECG were collected. Patients were treated until disease progression, death, adverse events (AEs) leading to discontinuation of study intervention(s), or withdrawal of consent, whichever occurred first, or end of study. […]
smiles,measurement,setting,value
COc1cc2ncc3c(c2cc1-c1cn(C)nc1C)n(-c1c(F)cncc1OC)c(=O)n3C [lartesertib],Any TEAE leading to death,100 mg n = 2,0 (0.0) n (%)
same,Any lartesertib-related TEAE leading to death,100 mg n = 2,0 (0.0) n (%)
same,TEAE: Urinary tract infection,100 mg n = 2,0 (0.0) n (%)
same,Any TEAE leading to death,200 mg n = 7,0 (0.0) n (%)
same,Any lartesertib-related TEAE leading to death,200 mg n = 7,0 (0.0) n (%)
same,TEAE: Urinary tract infection,200 mg n = 7,1 (14.3) n (%)
same,Any TEAE leading to death,300 mg n = 9,0 (0.0) n (%)
same,Any lartesertib-related TEAE leading to death,300 mg n = 9,0 (0.0) n (%)
same,TEAE: Urinary tract infection,300 mg n = 9,1 (11.1) n (%)
same,Any TEAE leading to death,400 mg n = 4,0 (0.0) n (%)
same,Any lartesertib-related TEAE leading to death,400 mg n = 4,0 (0.0) n (%)
same,TEAE: Urinary tract infection,400 mg n = 4,2 (50.0) n (%)
same,Any TEAE leading to death,Total N = 22,0 (0.0) n (%)
same,Any lartesertib-related TEAE leading to death,Total N = 22,0 (0.0) n (%)
same,TEAE: Urinary tract infection,Total N = 22,4 (18.2) n (%)
same,"Abdominal pain, Grade ≥3","human, in vivo",1 (4.5) n (%)
same,"Abdominal pain, Grade ≥4","human, in vivo",0 (0.0) n (%)
same,"Abdominal pain, Grade ≥5","human, in vivo",0 (0.0) n (%)
same,"Alanine aminotransferase increased, Grade ≥3","human, in vivo",2 (9.2) n (%)
same,"Alanine aminotransferase increased, Grade ≥4","human, in vivo",0 (0.0) n (%)
same,"Alanine aminotransferase increased, Grade ≥5","human, in vivo",0 (0.0) n (%)
same,"Anemia, Grade ≥3","human, in vivo",4 (18.2) n (%)
same,"Anemia, Grade ≥4","human, in vivo",0 (0.0) n (%)
same,"Anemia, Grade ≥5","human, in vivo",0 (0.0) n (%)
same,Any AESI cytopenia,"human, in vivo",4 (18.2) n (%)
same,"Any AESI cytopenia, Grade ≥3 (all anemia events)","human, in vivo",4 (18.2) n (%)
same,Any TEAE,"human, in vivo",22 (100.0) n (%)
same,Any TEAE leading to permanent treatment discontinuation,"human, in vivo",5 (22.7) n (%)
same,Any TEAE leading to temporary treatment discontinuation,"human, in vivo",5 (22.7) n (%)
same,"Any TEAE, Grade ≥3","human, in vivo",13 (59.1) n (%)
same,"Any TEAE, Grade ≥4","human, in vivo",1 (4.5) n (%)
same,Any lartesertib-related TEAE,"human, in vivo",15 (68.2) n (%)
same,"Any lartesertib-related TEAE, Grade ≥3","human, in vivo",4 (18.2) n (%)
same,"Any lartesertib-related TEAE, Grade ≥4","human, in vivo",1 (4.5) n (%)
same,Any lartesertib-related serious TEAE,"human, in vivo",2 (9.1) n (%)
same,Any serious TEAE,"human, in vivo",9 (40.9) n (%)
same,"Aspartate aminotransferase increased, Grade ≥3","human, in vivo",3 (13.6) n (%)
same,"Aspartate aminotransferase increased, Grade ≥4","human, in vivo",0 (0.0) n (%)
same,"Aspartate aminotransferase increased, Grade ≥5","human, in vivo",0 (0.0) n (%)
same,"Blood alkaline phosphatase increased, Grade ≥3","human, in vivo",1 (4.5) n (%)
same,"Blood alkaline phosphatase increased, Grade ≥4","human, in vivo",0 (0.0) n (%)
same,"Blood alkaline phosphatase increased, Grade ≥5","human, in vivo",0 (0.0) n (%)
same,"Blood and lymphatic system disorders, Grade ≥3","human, in vivo",4 (18.2) n (%)
same,"Blood and lymphatic system disorders, Grade ≥4","human, in vivo",0 (0.0) n (%)
same,"Blood and lymphatic system disorders, Grade ≥5","human, in vivo",0 (0.0) n (%)
same,"Blood bilirubin increased, Grade ≥3","human, in vivo",1 (4.5) n (%)
same,"Blood bilirubin increased, Grade ≥4","human, in vivo",0 (0.0) n (%)
same,"Blood bilirubin increased, Grade ≥5","human, in vivo",0 (0.0) n (%)
same,"Decreased appetite, Grade ≥3","human, in vivo",1 (4.5) n (%)
same,"Decreased appetite, Grade ≥4","human, in vivo",0 (0.0) n (%)
same,"Decreased appetite, Grade ≥5","human, in vivo",0 (0.0) n (%)
same,"Decreased neutrophil count, grade 1 or 2","human, in vivo",4.5%
same,"Decreased platelet count, grade 1 or 2","human, in vivo",4.5%
same,"Decreased white blood cell count, grade 1 or 2","human, in vivo",4.5%
same,"Dehydration, Grade ≥3","human, in vivo",1 (4.5) n (%)
same,"Dehydration, Grade ≥4","human, in vivo",0 (0.0) n (%)
same,"Dehydration, Grade ≥5","human, in vivo",0 (0.0) n (%)
same,"Gamma-glutamyltransferase increased, Grade ≥3","human, in vivo",1 (4.5) n (%)
same,"Gamma-glutamyltransferase increased, Grade ≥4","human, in vivo",0 (0.0) n (%)
same,"Gamma-glutamyltransferase increased, Grade ≥5","human, in vivo",0 (0.0) n (%)
same,"Gastrointestinal disorders, Grade ≥3","human, in vivo",3 (13.6) n (%)
same,"Gastrointestinal disorders, Grade ≥4","human, in vivo",0 (0.0) n (%)
same,"Gastrointestinal disorders, Grade ≥5","human, in vivo",0 (0.0) n (%)
same,Grade ≥3 anemia,"human, in vivo",18.2%
same,Grade ≥3 decreased lymphocyte count,"human, in vivo",13.6%
same,Grade ≥3 increased aspartate aminotransferase,"human, in vivo",13.6%
same,Grade ≥3 maculopapular rash,"human, in vivo",13.6%
same,"Immune system disorders, Grade ≥3","human, in vivo",1 (4.5) n (%)
same,"Immune system disorders, Grade ≥4","human, in vivo",1 (4.5) n (%)
same,"Immune system disorders, Grade ≥5","human, in vivo",0 (0.0) n (%)
same,"Investigations, Grade ≥3","human, in vivo",6 (27.3) n (%)
same,"Investigations, Grade ≥4","human, in vivo",0 (0.0) n (%)
same,"Investigations, Grade ≥5","human, in vivo",0 (0.0) n (%)
same,Lartesertib-related TEAE: Aspartate aminotransferase increased,"human, in vivo",3 (13.6) n (%)
same,Lartesertib-related TEAE: Blood creatinine increased,"human, in vivo",3 (13.6) n (%)
same,Lartesertib-related TEAE: Diarrhea,"human, in vivo",4 (18.2) n (%)
same,Lartesertib-related TEAE: Headache,"human, in vivo",3 (13.6) n (%)
same,Lartesertib-related TEAE: Maculopapular rash,"human, in vivo",5 (22.7) n (%)
same,Lartesertib-related TEAE: Nausea,"human, in vivo",5 (22.7) n (%)
same,Lartesertib-related TEAE: Pyrexia,"human, in vivo",6 (27.3) n (%)
same,"Lymphocyte count decreased, Grade ≥3","human, in vivo",3 (13.6) n (%)
same,"Lymphocyte count decreased, Grade ≥4","human, in vivo",0 (0.0) n (%)
same,"Lymphocyte count decreased, Grade ≥5","human, in vivo",0 (0.0) n (%)
same,"Maculopapular rash, Grade ≥3","human, in vivo",3 (13.6) n (%)
same,"Maculopapular rash, Grade ≥4","human, in vivo",0 (0.0) n (%)
same,"Maculopapular rash, Grade ≥5","human, in vivo",0 (0.0) n (%)
same,"Metabolism and nutrition disorders, Grade ≥3","human, in vivo",1 (4.5) n (%)
same,"Metabolism and nutrition disorders, Grade ≥4","human, in vivo",0 (0.0) n (%)
same,"Metabolism and nutrition disorders, Grade ≥5","human, in vivo",0 (0.0) n (%)
same,"Nausea, Grade ≥3","human, in vivo",2 (9.1) n (%)
same,"Nausea, Grade ≥4","human, in vivo",0 (0.0) n (%)
same,"Nausea, Grade ≥5","human, in vivo",0 (0.0) n (%)
same,Patients with at least one TEAE,"human, in vivo",100%
same,Patients with at least one lartesertib-related TEAE,"human, in vivo",68.2%
same,Patients with lartesertib-related grade 3 TEAEs,"human, in vivo",18.2%
same,Patients with serious TEAEs,"human, in vivo",40.9%
same,Serious TEAE maculopapular rash,"human, in vivo",9.1%
same,Serious TEAE nausea,"human, in vivo",9.1%
same,"Skin and subcutaneous tissue disorders, Grade ≥3","human, in vivo",3 (13.6) n (%)
same,"Skin and subcutaneous tissue disorders, Grade ≥4","human, in vivo",0 (0.0) n (%)
same,"Skin and subcutaneous tissue disorders, Grade ≥5","human, in vivo",0 (0.0) n (%)
same,TEAE fatigue,"human, in vivo",40.9%
same,TEAE increased blood creatinine,"human, in vivo",27.3%
same,TEAE nausea,"human, in vivo",27.3%
same,TEAE pyrexia,"human, in vivo",36.4%
same,TEAE: Abdominal pain,"human, in vivo",4 (18.2) n (%)
same,TEAE: Alanine aminotransferase increased,"human, in vivo",4 (18.2) n (%)
same,TEAE: Anemia,"human, in vivo",4 (18.2) n (%)
same,TEAE: Aspartate aminotransferase increased,"human, in vivo",4 (18.2) n (%)
same,TEAE: Blood bilirubin increased,"human, in vivo",3 (13.6) n (%)
same,TEAE: Blood creatinine increased,"human, in vivo",6 (27.3) n (%)
same,TEAE: Decreased appetite,"human, in vivo",3 (13.6) n (%)
same,TEAE: Diarrhea,"human, in vivo",4 (18.2) n (%)
same,TEAE: Fatigue,"human, in vivo",9 (40.9) n (%)
same,TEAE: Headache,"human, in vivo",3 (13.6) n (%)
same,TEAE: Lymphocyte count decreased,"human, in vivo",3 (13.6) n (%)
same,TEAE: Maculopapular rash,"human, in vivo",5 (22.7) n (%)
same,TEAE: Nausea,"human, in vivo",6 (27.3) n (%)
same,TEAE: Pyrexia,"human, in vivo",8 (36.4) n (%)
same,TEAE: Vomiting,"human, in vivo",5 (22.7) n (%)
same,"TEAEs, subjects with at least one event, Grade ≥3","human, in vivo",13 (59.1) n (%)
same,"TEAEs, subjects with at least one event, Grade ≥4","human, in vivo",1 (4.5) n (%)
same,"TEAEs, subjects with at least one event, Grade ≥5","human, in vivo",0 (0.0) n (%)
same,"Vomiting, Grade ≥3","human, in vivo",1 (4.5) n (%)
same,"Vomiting, Grade ≥4","human, in vivo",0 (0.0) n (%)
same,"Vomiting, Grade ≥5","human, in vivo",0 (0.0) n (%)
same,Changes in vital signs and triplicate electrocardiogram values,in vivo,No clinically meaningful changes
same,Patients with ≥1 treatment-related adverse events of grade ≥3,in vivo,Five patients
same,Maximum tolerated dose (MTD),"oral, continuous once daily monotherapy, suggested by BLRM",300 mg once daily
same,TEAEs leading to death,study period,No TEAEs led to death
